Structures can show the parent of a compound that is named as a salt. Where two headings read alike, the source gives them in different places. One block for each compound: values may come before it.
What was measured:
[1] = Lipid lowering in the normolipaemic golden hamster; format: in vivo, Goldhamster; conditions: compared with control group fed without test substance
Excerpt: III. Lipidsenkung am normolipämischen Goldhamster.
Diese Bestimmung wurde nach der in J. Lipid. Res. 38, 564-575, (1997) beschriebenen Methode durchgeführt. Am Ende des Versuchs wurde Gesamtcholesterol, β-Lipoprotein-Cholesterol sowie HDL-Cholesterol bestimmt und mit den Werten einer ohne Testsubstanz gefütterten Kontrollgruppe verglichen.

[2] = tested on: Cand. albicans ATCC 10231; test: Fungistatic effect, serial dilution test (microtitre system); format: cell-based; conditions: Candida albicans
Description: (§1) IV. Bestimmung der fungistatischen Wirkung
(§2) Die fungistatische Wirkung wurde über den Reihenverdünnungstest (Mikrotitersystem) bestimmt. Als Nährmedium diente Sabouraud-Bouillon. Das Inoculum betrug ca. 10^4 bis 10^5 KBE/ml (KBE = koloniebildende Einheiten); die Bebrütungszeit betrug 2 bis 4 Tage bei 26°C.
(§3) Es wurde die niedrigste Konzentration, die sichtbares Wachstum nicht mehr zuließ (minimale Hemmkonzentration MHK), bestimmt.
(§4) Geprüft wurden die vorstehend erwähnten Verbindungen A, B, D, E, F, H, I, K, L und M. Die Ergebnisse sind in der folgenden Tabelle 5 zusammengefaßt. Die MHK ist in µg/ml angegeben.

Rhod. rubra 49 = test: as above; format: cell-based; conditions: read-out: MHK
Description: as §1, §2, §3, §4

[3] = tested on: Sacch. carlsbergensis ATCC 9080; test: as above; format: cell-based; conditions: Saccharomyces pastorianus
Description: as §1, §2, §3, §4

Asp. niger ATCC 16404 = test: as above; format: cell-based; conditions: Aspergillus niger
Description: as §1, §2, §3, §4

[4] = tested on: Trich. mentagrophytes ATCC 9129; test: as above; format: cell-based; conditions: Trichophyton mentagrophytes
Description: as §1, §2, §3, §4

Pen.notatum CBS 19746 = test: as above; format: cell-based; conditions: Penicillium chrysogenum
Description: as §1, §2, §3, §4

[5] = molecular target: T1, ^14C-Acetat-Einbau in die mit Digitonin fällbaren Steroide (Homo sapiens, UniProt P48449); test: Inhibition of 14C-acetate incorporation into digitonin-precipitable steroids; format: cell-based; conditions: read-out: Prozentwerte, um die die Verbindungen den ^14C-Acetat-Einbau hemmen
T1 sequence (P48449 2-732): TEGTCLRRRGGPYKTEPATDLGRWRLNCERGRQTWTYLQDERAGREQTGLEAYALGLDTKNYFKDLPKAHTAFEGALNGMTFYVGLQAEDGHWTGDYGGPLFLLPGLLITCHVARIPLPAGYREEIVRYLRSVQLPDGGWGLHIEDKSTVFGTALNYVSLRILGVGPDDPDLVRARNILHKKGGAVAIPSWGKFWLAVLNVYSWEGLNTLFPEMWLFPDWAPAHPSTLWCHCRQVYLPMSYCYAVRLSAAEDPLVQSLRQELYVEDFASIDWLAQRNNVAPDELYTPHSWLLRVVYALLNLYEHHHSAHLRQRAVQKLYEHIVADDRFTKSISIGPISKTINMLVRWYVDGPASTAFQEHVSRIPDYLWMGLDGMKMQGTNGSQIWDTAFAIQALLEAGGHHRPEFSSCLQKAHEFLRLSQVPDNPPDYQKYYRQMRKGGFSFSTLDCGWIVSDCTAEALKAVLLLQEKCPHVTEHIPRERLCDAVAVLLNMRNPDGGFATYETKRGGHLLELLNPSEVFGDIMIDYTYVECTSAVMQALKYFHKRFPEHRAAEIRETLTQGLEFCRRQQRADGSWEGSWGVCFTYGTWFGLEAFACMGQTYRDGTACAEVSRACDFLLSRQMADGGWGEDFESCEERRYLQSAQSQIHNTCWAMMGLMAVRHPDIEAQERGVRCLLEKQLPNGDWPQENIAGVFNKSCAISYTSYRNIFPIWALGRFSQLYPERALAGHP
Excerpt: I. Messung der Hemmung des ^14C-Acetat-Einbaus in die mit Digitonin fällbaren Steroide:
Die Untersuchung der Hemmwirkung wurde nach der in J. Lipid. Res. 37, 148-157 [1996] beschriebenen Methode bei Testkonzentrationen von 10^-8 und 10^-9 Mol/l durchgeführt.
Die Prozentwerte, um die obigen Verbindungen den ^14C-Acetat-Einbau hemmen, sind in Tabelle 1 angegeben.

[6] = tested on: 2,3-Epoxisqualen-Lanosterol-Cyclase; test: In-vivo effect in the rat after oral administration: 2,3-epoxysqualene level in the liver; parameters: species or system Ratte
Description: II. Messung der in-vivo Wirkung an der Ratte nach oraler Gabe
Die Inhibierung des Enzyms 2,3-Epoxisqualen-Lanosterol-Cyclase bewirkt eine Erhöhung der 2,3-Epoxisqualenspiegel in Leber und Plasma. Die Menge an gebildetem 2,3-Epoxisqualen dient daher als direktes Maß für die Wirkstärke am Ganztier.Die Bestimmung wurde nach der in J. Lipid. Res. 38, 564-575, [1997] beschriebenen Methode nach t = 3 bzw. 8 Stunden nach Substanzgabe mit Konzentrationen von c = 0.01, 0.03, 0.1, 0.3 und 1.0 mg/kg durchgeführt. In der folgenden Tabelle 3 sind beispielhaft die Ergebnisse für die vorstehend erwähnten Substanzen A, B, C, D, E, G, H, I und K angegeben.

Structure (SMILES): Cc1ccc(OC(=O)N2CCC(Cc3ccc(CN(C)C)cc3)CC2)cc1.Cl [K, 4-[4-(Dimethylaminomethyl)benzyl] -N-(4-methylphenoxy)-carbonylpiperidin-hydrochlorid]
Gesamtcholesterol ([1]; Dosis 54.2 mg/kg/Tag): -6.8% | HDL-Cholesterol ([1]; Dosis 54.2 mg/kg/Tag): 2.3% | β-Lipoprotein-Cholesterol ([1]; Dosis 54.2 mg/kg/Tag): -21.2% | MIC ([2]; ATCC10231, read-out: MHK): 64 µg/mL | MIC (Rhod. rubra 49): 64 µg/mL | MIC ([3]; ATCC9080, read-out: MHK): 512 µg/mL | MIC (Asp. niger ATCC 16404; ATCC16404, read-out: MHK): 64 µg/mL | MIC ([4]; ATCC9129, read-out: MHK): 8 µg/mL | MIC (Pen.notatum CBS 19746; CBS19746, read-out: MHK): 256 µg/mL | inhibition at 0.001 µM [5]: 49% | inhibition at 0.01 µM [5]: 82% | 2,3-Epoxysqualen-Konzentration in der Leber (Ratte) ([6]; c = 0.1 mg/kg, t = 3 h): 0.4 µg/g | 2,3-Epoxysqualen-Konzentration in der Leber (Ratte) ([6]; c = 0.1 mg/kg, t = 8 h): 0.4 µg/g | 2,3-Epoxysqualen-Konzentration in der Leber (Ratte) ([6]; c = 1.0 mg/kg, t = 3 h): 24.0 µg/g | 2,3-Epoxysqualen-Konzentration in der Leber (Ratte) ([6]; c = 1.0 mg/kg, t = 8 h): 5.5 µg/g

Structure (SMILES): CN(C)Cc1ccc(CC2CCN(C(=O)Oc3ccc(Cl)cc3)CC2)cc1 [Verbindung H, N-(4-Chlorphenoxy)carbonyl-4-[4-(dimethylaminomethyl)-benzyl]piperidin-hydrochlorid]
Gesamtcholesterol ([1]; Dosis 6.5 mg/kg/Tag): -8.3% | HDL-Cholesterol ([1]; Dosis 6.5 mg/kg/Tag): -3.4% | β-Lipoprotein-Cholesterol ([1]; Dosis 6.5 mg/kg/Tag): -13.0% | Gesamtcholesterol ([1]; Dosis 19.9 mg/kg/Tag): -11.0% | HDL-Cholesterol ([1]; Dosis 19.9 mg/kg/Tag): -8.2% | β-Lipoprotein-Cholesterol ([1]; Dosis 19.9 mg/kg/Tag): -13.2% | Gesamtcholesterol ([1]; Dosis 62.3 mg/kg/Tag): -32.1% | HDL-Cholesterol ([1]; Dosis 62.3 mg/kg/Tag): -28.5% | β-Lipoprotein-Cholesterol ([1]; Dosis 62.3 mg/kg/Tag): -33.7% | MIC ([2]; ATCC10231, read-out: MHK): 64 µg/mL | MIC (Rhod. rubra 49): 16 µg/mL | MIC ([3]; ATCC9080, read-out: MHK): 128 µg/mL | MIC (Asp. niger ATCC 16404; ATCC16404, read-out: MHK): 32 µg/mL | MIC ([4]; ATCC9129, read-out: MHK): 1 µg/mL | MIC (Pen.notatum CBS 19746; CBS19746, read-out: MHK): 64 µg/mL | inhibition at 0.001 µM [5]: 45% | inhibition at 0.01 µM [5]: 80% | 2,3-Epoxysqualen-Konzentration in der Leber (Ratte) ([6]; c = 0.1 mg/kg, t = 3 h): 1.0 µg/g | 2,3-Epoxysqualen-Konzentration in der Leber (Ratte) ([6]; c = 0.1 mg/kg, t = 8 h): 0.8 µg/g | 2,3-Epoxysqualen-Konzentration in der Leber (Ratte) ([6]; c = 1.0 mg/kg, t = 3 h): 56.3 µg/g | 2,3-Epoxysqualen-Konzentration in der Leber (Ratte) ([6]; c = 1.0 mg/kg, t = 8 h): 20.7 µg/g

MIC ([2]; ATCC10231, Cand., Sabouraud-Bouillon, 2 bis 4 Tage bei 26°C, read-out: MHK): 256 µg/mL | MIC (Rhod. rubra 49; Rhod., Sabouraud-Bouillon, 2 bis 4 Tage bei 26°C): 64 µg/mL | MIC ([3]; ATCC9080, Sacc., Sabouraud-Bouillon, 2 bis 4 Tage bei 26°C, read-out: MHK): 512 µg/mL | MIC (Asp. niger ATCC 16404; ATCC16404, Asp., Sabouraud-Bouillon, 2 bis 4 Tage bei 26°C, read-out: MHK): 64 µg/mL | MIC ([4]; ATCC9129, Trich., Sabouraud-Bouillon, 2 bis 4 Tage bei 26°C, read-out: MHK): 4 µg/mL | MIC (Pen.notatum CBS 19746; CBS19746, Pen., Sabouraud-Bouillon, 2 bis 4 Tage bei 26°C, read-out: MHK): 128 µg/mL | inhibition at 0.01 µM ([5]; Testkonzentration 10^-8 Mol/l): 85% | inhibition at 0.001 µM ([5]; Testkonzentration 10^-9 Mol/l): 47%
Structure (SMILES): CN(C)Cc1ccc(CC2CCN(C(=O)OCc3ccccc3)CC2)cc1.Cl [Verbindung I, N-Benzyloxycarbonyl-4-[4-(dimethylaminomethyl)benzyl]-piperidin-hydrochlorid]
Gesamtcholesterol ([1]; Dosis 47.1 mg/kg/Tag): -23.1% | HDL-Cholesterol ([1]; Dosis 47.1 mg/kg/Tag): -17.6% | β-Lipoprotein-Cholesterol ([1]; Dosis 47.1 mg/kg/Tag): -32.9% | 2,3-Epoxysqualen-Konzentration in der Leber (Ratte) ([6]; c = 0.1 mg/kg, t = 3 h): 1.0 µg/g | 2,3-Epoxysqualen-Konzentration in der Leber (Ratte) ([6]; c = 1.0 mg/kg, t = 3 h): 26.1 µg/g | 2,3-Epoxysqualen-Konzentration in der Leber (Ratte) ([6]; c = 1.0 mg/kg, t = 8 h): 10.0 µg/g

Reference: patent EP1060162B1, “URETHANES DERIVED FROM AZACYCLOALKANES, THIO AND DITHIO ANALOGUES, PRODUCTION AND USE THEREOF AS 2,3 EPOXYSQUALENE LANESTEROL CYCLASE INHIBITORS” (Boehringer Ingelheim Pharma KG, priority 1997, dated 1999)
